Reference: PubChem BioAssay (NCI)
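Results reflect a 48-hour exposure of cells in 96-well plates to compound at five concentrations. GI50 marks 50% less growth. TGI: total growth inhibition.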

How the values were obtained:
Experiment in all cases: NCI anticancer screen, dose series, 48 h
SR leukemia = tested on: SR leukemia
HCT-116 colon = tested on: HCT-116 colon
SN12C renal = tested on: SN12C renal
HL-60(TB) leukemia = tested on: HL-60(TB) leukemia
KM12 colon = tested on: KM12 colon
SNB-75 CNS = tested on: SNB-75 CNS
HOP-62 NSCLC = tested on: HOP-62 NSCLC
SF-268 CNS = tested on: SF-268 CNS
OVCAR-5 ovarian = tested on: OVCAR-5 ovarian
RXF 393 renal = tested on: RXF 393 renal

Row | SMILES | GI50 (SR leukemia) [µM] | TGI (SR leukemia) [µM] | GI50 (HCT-116 colon) [µM] | TGI (HCT-116 colon) [µM] | GI50 (SN12C renal) [µM] | TGI (SN12C renal) [µM] | GI50 (HL-60(TB) leukemia) [µM] | TGI (HL-60(TB) leukemia) [µM] | GI50 (KM12 colon) [µM] | TGI (KM12 colon) [µM] | GI50 (SNB-75 CNS) [µM] | TGI (SNB-75 CNS) [µM] | GI50 (HOP-62 NSCLC) [µM] | TGI (HOP-62 NSCLC) [µM] | GI50 (SF-268 CNS) [µM] | TGI (SF-268 CNS) [µM] | GI50 (OVCAR-5 ovarian) [µM] | TGI (OVCAR-5 ovarian) [µM] | GI50 (RXF 393 renal) [µM] | TGI (RXF 393 renal) [µM]
1 | C=C1CCC2C3(C)COC(c4cccc(Cl)c4)OC3CCC2(C)C1/C=C/C1=CCOC1=O (stereo not given) | 4.11 | > 100 | 3.08 | > 100 | > 100 | > 100 | 8.27 | > 100 | 8.01 | > 100 | 6.46 | > 100 | > 100 | > 100 | > 100 | > 100 | > 100 | > 100 | > 100 | > 100
2 | Cc1ccc2c(c1)/C(=N\N=C/c1cn(C(C)C)c3ccccc13)C(=O)N2 | 0.261 | > 100 | 1.09 | > 100 | 4.47 | > 100 | 1.95 | 6.17 | 5.5 | > 100 | 3.2 | > 100 | 28.4 | > 100 | 4.9 | > 100 | 35.1 | > 100 | 4.31 | > 100
3 | C#CCSc1nnnn1-c1ccc(Br)c(C)c1 | 19.8 | > 100 | 29.3 | > 100 | 19.1 | > 100 | 27.3 | 87 | 35 | > 100 | 25.7 | > 100 | 64.3 | > 100 | 24.6 | > 100 | 69.4 | > 100 | 27.3 | > 100
4 | Oc1ccc(-c2nc(-c3ccc(F)cc3)c(-c3ccncc3)[nH]2)cc1 | 6.98 | 52.8 | 17.4 | 53 | 14.9 | > 100 | 18.1 | 67.1 | 23 | 72.3 | 8.86 | > 100 | 36.7 | > 100 | 19.3 | > 100 | 59.3 | > 100 | 8.92 | 43.2
5 | CC1(C)OCC(C2OC(On3nnc4ccc(Cl)cc43)C3OC(C)(C)OC23)O1 (stereo not given) |  | > 100 |  | > 100 |  | > 100 |  | > 100 |  | > 100 |  | > 100 |  | > 100 |  | > 100 |  | > 100 |  | > 100
6 | Cc1cc(N(CCC#N)CCC#N)ccc1N=Nc1ccc([N+](=O)[O-])cc1 |  | > 100 |  | 31.6 |  | > 100 |  | > 100 |  | > 100 |  | > 10 |  | > 100 |  | > 100 |  | > 100 |  | > 100
7 | CC(=O)NNc1nc(C)c(C(/C=C/c2ccc3c(c2)OCO3)=N/NC(=O)c2ccncc2)s1 |  | > 100 |  | > 100 |  | > 100 |  | > 100 |  | > 100 |  | > 100 |  | > 100 |  | > 100 |  | > 100 |  | > 100
8 | Nc1ccc(C(=O)O)c2[nH]c3ccccc3c(=O)c12 |  | > 100 |  | > 100 |  | > 100 |  | > 100 |  | > 100 |  | > 100 |  | > 100 |  | > 100 |  | > 100 |  | > 100
9 | COc1cc2c(cc1OCCCN1CCN(CCCOc3cc4c(cc3OC)C(=O)C3CCC[C@H]3C=N4)CC1)N=C[C@@H]1CCCC1C2=O (stereo not given in full) | 0.367 | > 100 | 12.1 | > 100 | 10.4 | > 100 | 1.51 | 4.1 | 22.7 | > 100 | 24.8 | > 85.4 | 4.78 | > 100 | 3 | > 100 | 4.84 | > 27.2 | 3 | 17.5
10 | Nc1nccc(C#Cc2cncnc2Nc2ccc(OCc3cccc(F)c3)c(Cl)c2)n1 | 3.18 | > 25 | 3.48 | 7.43 | 3.22 | 9.98 | 5.7 | 14.5 | 4.52 | 8.2 | 5.75 | > 14.3 | 4.93 | 9.17 | 4.5 | 9.28 | 5.45 | 11.3 | 4.02 | 8.9
